Laboratory results from patent publication US20090226455A1, “COMBINATION THERAPY WITH C-MET AND HER ANTAGONISTS” (Genentech, Inc., priority 2008, published 2009).

Experiments:
[1] = system: EBC-1 shMet-4.5 tumors; test: EBC-1 shMet-4.5 NSCLC xenograft model, tumor growth inhibition; format: in vivo, nude mice (nu/nu); conditions: compared to sucrose control at day 29; pertuzumab 5 mg/kg IP once a week; Dox 1 mg/mL in 5% sucrose drinking water (induces c-met shRNA knockdown)
Protocol: Control antibodies mouse IgG2a isotype 10D9-1E11-1F12 (anti-Ragweed) antibody and the human IgG1 isotype hu5B6 (anti-gD) antibody were obtained from the Antibody Engineering Department at Genentech, Inc., in a clear liquid form and were diluted in 1×PBS. Doxycycline (Dox) was prepared fresh at 0.5 or 1 mg/mL in 5% sucrose water and was regularly exchanged every 3 days. In Dox studies, control animals were given 5% sucrose water that was exchanged every 3 days. Materials were stored in a refrigerator set to maintain a temperature range of 4° C. to 8° C. […]
To prepare cells for inoculation into mice, cells were trypsinized, washed with ten milliliters of sterile 1× phosphate buffered saline (PBS). A subset of cells was counted by trypan blue exclusion and the remainder of cells was resuspended in 100 μl of sterile 1× PBS to a concentration of 5×10^7 cells per milliliter. […] Tumors were monitored until they reached a mean volume of 200 mm^3.
Mice in Group 1 were treated with anti-Ragweed control antibody (5 mg/kg, IP, once a week for 5 weeks) and given 5% sucrose drinking water. […] Tumor volumes were monitored through day 29. […]
Tumor inhibition was plotted using KaleidaGraph 3.6 (Synergy Software; Reading, Pa.). Percent growth inhibition (% Inh) was calculated as follows: […]
Tumor incidence was determined by the number of measurable tumors in each group at the end of study. […]

[2] = system: advanced ovarian cancer; conditions: 3 subjects with advanced ovarian cancer treated; one subject; cited from earlier work

Compound | tumor inhibition (reduction in tumor growth) [1] [%] | clinical response [2]
C[C@H]1c2cccc(O)c2C(=O)C2=C(O)[C@]3(O)C(=O)C(C(N)=O)=C(O)[C@@H](N(C)C)[C@@H]3[C@@H](O)[C@@H]21 [Dox, Doxycycline, reference compound] | 54 | 
pertuzumab: humanized antibody that inhibits the dimerization of HER2 with other HER receptors; light and heavy chain SEQ ID NOs 15 and 16 | 43.6 | durable partial response
